According to US20030134883A1, “14-Methyl-epothilones” (priority 2001, published 2003):

Tests used:
MCF-7 cancer cell line = experiment: Cytotoxicity in cell culture (FIG. 3), MCF-7; assay type: cell-based; conditions: MCF-7 cells, in vitro
NCI-ADR cancer cell line = experiment: Cytotoxicity in cell culture (FIG. 3), NCI-ADR; assay type: cell-based; conditions: NCI-ADR cells, in vitro
H460 cancer cell line = experiment: Cytotoxicity in cell culture (FIG. 3), H460; assay type: cell-based; conditions: H460 cells, in vitro
SF cancer cell line = experiment: Cytotoxicity in cell culture (FIG. 3), SF; assay type: cell-based; conditions: SF cells, in vitro
MX-1 tumor xenograft = MX-1 tumor xenograft in nude mice, tumor size (FIG. 1); assay type: in vivo; conditions: infusion twice daily for five days; compared with control (pharmaceutical carrier only)
[1] = Body weight of treated nude mice with MX-1 xenograft (FIG. 2); assay type: in vivo; conditions: infusion twice daily for five days; during the course of treatment

Row | Compound | cytotoxicity (MCF-7 cancer cell line) | cytotoxicity (NCI-ADR cancer cell line) | cytotoxicity (H460 cancer cell line) | cytotoxicity (SF cancer cell line) | rate of tumor growth as measured by the tumor size (MX-1 tumor xenograft) | body weight [1]
1 | C/C1=C/[C@H](C)[C@@H](/C(C)=C/c2csc(C)n2)OC(=O)C[C@H](O)C(C)(C)C(=O)[C@H](C)[C@@H](O)[C@@H](C)CCC1 [(14S)-14-methylepothilone D] | cytotoxic | cytotoxic | cytotoxic | cytotoxic | decrease in the rate of tumor growth | slight decrease in body weight
2 | C/C(=C\c1csc(C)n1)[C@H]1OC(=O)C[C@H](O)C(C)(C)C(=O)[C@H](C)[C@@H](O)[C@@H](C)CCC[C@@]2(C)O[C@H]2[C@@H]1C [(14R)-14-methylepothilone B] | cytotoxic | cytotoxic | cytotoxic | cytotoxic | – | –
3 | C/C(=C\c1csc(C)n1)[C@H]1OC(=O)C[C@H](O)C(C)(C)C(=O)[C@H](C)[C@@H](O)[C@@H](C)CCC[C@@]2(C)O[C@H]2[C@H]1C [(14S)-14-methylepothilone B] | essentially inactive | essentially inactive | essentially inactive | essentially inactive | – | –
4 | C/C1=C/[C@@H](C)[C@@H](/C(C)=C/c2csc(C)n2)OC(=O)C[C@H](O)C(C)(C)C(=O)[C@H](C)[C@@H](O)[C@@H](C)CCC1 [(14R)-14-methylepothilone D] | essentially inactive | essentially inactive | essentially inactive | essentially inactive | – | –
